Common to all, as to set-up: species or system mice
Series [1] has as its system pancreatic ductal adenocarcinoma No. 03. The series is described as follows: In vivo antitumor assay, Panc03(sc). The conditions noted are these: for Log Kill: Panc03(sc), drug iv.
Series [2] is described as follows: In vivo antitumor assay, P388(ip). The conditions noted are these: mouse, in vivo, qd 1,5,9. An excerpt:
(§1) Mice: Inbred: C3H/He and NCR-nu; and Hybrids: B6D2F1 (C57BL/6 females×DBA/2 males, CD2F1 (Balb/c females×DBS/2 males) and B6C3fl (C57BL/6×C3H) were bred at Wayne State University from strains obtained from the Frederick Cancer Research Facility, Frederick, Maryland or purchased from commercial suppliers.
(§2) Tumors: Murine Tumor: P388 and an adriamycin-resistant (ADR) subline P388/ADR leukemia and the following transplantable solid tumors of mice were used for in vivo testing: B16 melanoma (B16), pancreatic ductal adenocarcinoma No. 03 (Pane 03), colon adenocarcinoma No. 38 (colo 38), lung carcinoma No. 12 (LC 12), mammary ductal adenocarcinoma No. 16/C (Mam16C) and an adriamycin-resistant subline Mam16C/ADR. Human tumor: A single human tumor, mammary carcinoma MX-1 was used for in vivo testing. All tumors are in the Developmental Therapeutics Program frozen tumor respository, maintained by the Biological Testing Branch, Frederick Maryland. Each has a detailed description, code identification number, and list of references at the National Tumor Repository. Murine tumors were maintained in the mouse strain of origin and were transplanted in the appropriate F1 hydrid (or the strain of origin) for therapy trials. Human mammary carcinoma MX-1 (MX1) was maintained as a subcutaneous implant in either athymic Swiss (Cr: NIH(S)-nu) or athymic random bred (NCR-nu) mice and transplanted in NCR-nu for therapy trials.
For P388 and P388/ADR leukemia studies the tumor cells were implanted either interperitoneally (IP) or intravenously (IV) on day zero and treatment was started on day one. For B16 melanoma (B16) studies, the tumor cells were implanted IP on day zero and treatment was started on day one. Titered controls were also included to facilitate the calculation of tumor cell kill. For mammary carcinoma MX-1 studies, tumors were implanted with 1) subcutaneously (sc) (14-mg fragment of sc donor tumor) in the axillary region or 2) under the subrenal capsule (SRC) (10×10×10 ocular micrometer unit fragment of sc donor tumor).
(§3) Quantitative end points used to assess antitumor activity included % Increased Life Span (% ILS), Tumor Cell Kill (Log10 kill), and Tumor Growth Inhibition (T/C). Long Term Survivors (45 or 60 day) were excluded from calculations of %ILS and Tumor Cell Kill.
Endpoints were calculated as follows: [formula] where Dt is the median day of death for treated and Dc is the median day of death for control groups. A % ILS ≥20 or ≥25 for P388 and B16 intraperitoneal models, respectively, is indicative of a significant degree of antitumor activity. A % ILS ≥75 or ≥50 for P388 and B16 intraperitoneal models, , respectively, is indicative of a high degree of antitumor activity and is the level used by National Cancer Institute to justify further development if other requirements are met (termed DN-2 level activity). Minimum quantitative activity limits for additional P388 models (e.g. P388/ADR and P388, IV) have not been defined.

A short description of series [3]: In vivo antitumor assay, Mam16C/RP (sc). The conditions noted are these: mouse, in vivo, drug iv.
Excerpt: as §1, §2
(§4) Chemotherapy: For pancreatic ductal adenocarcinoma No. 3, colon adenocarcinoma No. 38 (colo 38), lung carcinoma No. 12 LC 12) and both adriamycin-sensitive (RP) and-resistant (ADR) mammary ductal adenocarcinoma No. 16 (Mam16) tumors, bilateral tumor implants were used to help ensure a more uniform tumor burden per mouse (thus reducing the requirement for greater numbers of mice per group). The animals necessary to begin an experiment were pooled, implanted bilaterally s.c. on day zero with 30-60 mg tumor fragments using a 12-gauge trocar, and again pooled before randomization to the various treatment and control groups. Chemotherapy was started within three days after tumor implantation while the number of cells per mouse was relatively small (1×10^7 -1×10^8 cells).
as §3
(§5) Tumors were measured with a caliper once or twice weekly (as needed) until either tumors exceeded 1600 mg or cure was assured. Tumor weights were estimated from two-dimensional measurements: Tumor Weight (mg)=(a×b^2) / 2, where a and b are the tumor length and width (ram) respectively. Measurements were carried out simultaneously in both treatment and control groups. When the control group tumors reached approximately 750-1500 mg in size (median of group), the median tumor weight of each group was determined (including zeros). The T/C value in percent is an indication of antitumor effectiveness. The % T/C was calculated from the following formula for solid murine tumor models: [formula] where T and C are median tumor weights of the treatment and control groups, respectively. […] A T/C value <10% is indicative of a high degree of antitumor activity and is the level used by National Cancer Institute to justify further development if other requirements are met (termed DN-2 level activity). By convention the T/C value for the mammary carcinoma MX-1 models is calculated by the parameter of change in tumor weight .

For series [4], the system named is adriamycin-sensitive (RP) mammary ductal adenocarcinoma No. 16. The experiment in a line: In vivo antitumor assay, Mam16C/RP (sc). The conditions noted are these: drug iv.
Excerpt: as §1, §2, §4, §3, §5

Where [5] appears, read: Mam16C/RP (sc), bid 1-5, exp 924.

For `Cc1cc(-c2c(F)cc3c4nn(CCN(C)C)c(=O)c-4cn(C4CC4)c3c2F)cc(C)n1.O=C(O)/C=C/C(=O)O` [Example 1, 5-Cyclopropyl-6,8-difluoro-2,5-dihydro-2-[2-(dimethylamino)-ethyl]-7-(2,6-dimethyl-4-pyridinyl)-3H-pyrazolo[4,3-c]quinolin-3-one (E)-2-butendioate (1:1)], the “Log Kill” value was 0.66 in series [1] (qd 3,6,9, exp 1146); 0.66 in series [1] (qd 3, exp 895A); 1.2 in series [4] (setting [5]). Also, the MTD in series [2] (drug ip) was found to be 78 mg/kg; in series [2] (drug iv), 117 mg/kg; in series [3] (setting [5]), 20 mg/kg. In addition, in series [4] (setting [5]), the T/C % turned out to be 13%.

`Cc1cc(-c2c(F)cc3c4nn(CCCN(C)C)c(=O)c-4cn(C4CC4)c3c2F)cc(C)n1` [Example 14]: the “Log Kill” value in series [1] (qd 3-5, exp 895A) was determined as 0.60; in series [4] (Mam16C/RP, bid 1-8, exp 924), 1.5. Further, the MTD in series [1] (mouse, in vivo, iv) was determined as 64 Mg/Kg; in series [2] (drug ip), 42 mg/kg; in series [2] (drug iv) it was 64 mg/kg; in series [3] (Mam16C/RP, bid 1-8, exp 924), 101 mg/kg. In series [4] (Mam16C/RP, bid 1-8, exp 924), this molecule yielded a T/C % of 8%.

Turning to `Cc1cc(-c2c(F)cc3c4nn(CCNCCO)c(=O)c-4cn(C4CC4)c3c2F)cc(C)n1` [Example 17], the MTD in series [2] (drug ip) stood at 180 mg/kg; in series [2] (drug iv), 120 mg/kg.

`Cc1cc(-c2c(F)cc3c4nn([C@H]5CC[C@@H](N(C)C)CC5)c(=O)c-4cn(C4CC4)c3c2F)cc(C)n1` [Example 51a]: the values for the MTD in series [2] (drug ip) and in series [2] (drug iv) were 9.9 mg/kg and 39.9 mg/kg, respectively.

With `Cc1cc(-c2c(F)cc3c4nn([C@H]5CC[C@H](N(C)C)CC5)c(=O)c-4cn(C4CC4)c3c2F)cc(C)n1` [Example 51b], the MTD in series [2] (drug ip) was determined as 66 mg/kg; in series [2] (drug iv) it was 120 mg/kg.
